Laboratory results: patent US12528814B2, “Bifunctional degraders of interleukin-1 receptor-associated kinases and therapeutic use thereof” (NURIX THERAPEUTICS, INC., priority 2020, dated 2026)
Like-named read-outs stand apart in the source and are kept apart here.

Columns and labels:
IRAK4 [1] = biological target: T1, IRAK4 (Homo sapiens (Human), UniProt Q9NWZ3); assay: IRAK4 Biochemical HTRF Kinase Assay; conditions: read-out: IRAK4 HTRF biochemical: IC50
Outline: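 IC50 values derive from non-linear regression of sixteen concentrations in duplicate. Kinase reaction ran 90 min at ambient temperature after adding 5 μM STK-S1 substrate, 10 mM ATP and 10 mM MgCl2 (reaction-solution levels, pre-dilution to 10 μl); phospho-peptide detected by HTRF after 60 min.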
Target sequence in this assay (Q9NWZ3 whole entry, species assumed): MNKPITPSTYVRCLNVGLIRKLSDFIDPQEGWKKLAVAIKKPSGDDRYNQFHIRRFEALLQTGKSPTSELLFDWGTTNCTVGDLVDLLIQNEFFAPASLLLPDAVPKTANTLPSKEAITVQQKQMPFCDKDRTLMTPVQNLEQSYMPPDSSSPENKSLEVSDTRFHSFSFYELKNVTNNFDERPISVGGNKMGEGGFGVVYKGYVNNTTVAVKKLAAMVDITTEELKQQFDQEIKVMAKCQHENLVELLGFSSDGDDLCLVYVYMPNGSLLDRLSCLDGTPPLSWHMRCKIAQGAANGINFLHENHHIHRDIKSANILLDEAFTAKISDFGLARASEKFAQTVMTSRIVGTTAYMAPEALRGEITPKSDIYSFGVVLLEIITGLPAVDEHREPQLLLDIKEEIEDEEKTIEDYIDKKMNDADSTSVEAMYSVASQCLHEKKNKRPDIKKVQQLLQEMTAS

IRAK4 [2] = biological target: T1, IRAK4; assay: IRAK4 Degradation HiBiT Assay; conditions: HiBiT-tagged Jurkat cells, 4 hrs; for Dmax: Jurkat; for DC50: read-out: Cellular IRAK4 HiBiT: DC50
Target sequence in this assay (Q9NWZ3 whole entry): as the sequence (Q9NWZ3 whole entry, species assumed) above

[3] = read-out: Cellular IRAK4 HiBiT: Dmax, Table 4
[4] = read-out: Cellular IRAK4 HiBiT: Dmax, Table 5, multiple runs

Row | IC50 (IRAK4 [1]; Table 4) [nM] | IC50 (IRAK4 [1]; Table 5, multiple runs) [nM] | Dmax (IRAK4 [2]; [3]) [%] | Dmax (IRAK4 [2]; [4]) [%] | DC50 (IRAK4 [2]; Table 4) [nM] | DC50 (IRAK4 [2]; Table 5, multiple runs) [nM] | SMILES
1 | – | 0.7 | – | 85 | – | 57 | CNc1cc(-c2ccc3cc(C#N)cnn23)ncc1-c1nnc(N2CC3(CCN(C(=O)COc4cc(-c5scnc5C)ccc4CNC(=O)[C@@H]4C[C@@H](O)CN4C(=O)[C@@H](NC(=O)C4(F)CC4)C(C)(C)C)CC3)C2)s1 [Example 179, (2S,4R)—N-(2-(2-(2-(5-(6-(3-cyanopyrrolo[1,2-b]pyridazin-7-yl)-4-(methylamino)pyridin-3-yl)-1,3,4-thiadiazol-2-yl)-2,7-diazaspiro[3.5]nonan-7-yl)-2-oxoethoxy)-4-(4-methylthiazol-5-yl)benzyl)-1-((S)-2-(1-fluorocyclopropane-1-carboxamido)-3,3-dimethylbutanoyl)-4-hydroxypyrrolidine-2-carboxamide]
2 | – | 1.9 | – | 69 | – | 25.2 | CC(C)Nc1cc(-c2ccc3cc(C#N)cnn23)ncc1-c1nnc(N2CCN(C(=O)C3CCN(C(=O)CNc4cccc5c4C(=O)N(C4CCC(=O)NC4=O)C5=O)CC3)CC2)s1 (stereo not drawn) [Example 73, 7-(5-(5-(4-(1-((2-(2,6-dioxopiperidin-3-yl)-1,3-dioxoisoindolin-4-yl)glycyl)piperidine-4-carbonyl)piperazin-1-yl)-1,3,4-thiadiazol-2-yl)-4-(isopropylamino)pyridin-2-yl)pyrrolo[1,2-b]pyridazine-3-carbonitrile]
3 | 5.26 | 5.3 | 115 | 118 | 72.8 | 73.7 | CNc1cc(-c2ccc3cc(C#N)cnn23)ncc1-c1nnc([C@H]2CC[C@H](NC(=O)CCOCCOc3cc(-c4scnc4C)ccc3CNC(=O)[C@@H]3C[C@@H](O)CN3C(=O)[C@@H](NC(=O)C3(F)CC3)C(C)(C)C)CC2)s1 [Example 58, (2S,4R)—N-(2-(2-(3-(((1r,4r)-4-(5-(6-(3-cyanopyrrolo[1,2-b]pyridazin-7-yl)-4-(methylamino)pyridin-3-yl)-1,3,4-thiadiazol-2-yl)cyclohexyl)amino)-3-oxopropoxy)ethoxy)-4-(4-methylthiazol-5-yl)benzyl)-1-((S)-2-(1-fluorocyclopropane-1-carboxamido)-3,3-dimethylbutanoyl)-4-hydroxypyrrolidine-2-carboxamide]
4 | – | 0.5 | – | 107 | – | 20.1 | CNc1cc(-c2ccc3cc(C#N)cnn23)ncc1-c1nnc([C@H]2CC[C@H](N(C)CC3CCN(c4ccc(C(=O)NC5CCC(=O)NC5=O)nc4)CC3)CC2)s1 (stereo partly drawn) [Example 167, 5-(4-((((1r,4r)-4-(5-(6-(3-cyanopyrrolo[1,2-b]pyridazin-7-yl)-4-(methylamino)pyridin-3-yl)-1,3,4-thiadiazol-2-yl)cyclohexyl)(methyl)amino)methyl)piperidin-1-yl)-N-(2,6-dioxopiperidin-3-yl)picolinamide]
5 | – | 3.1 | – | 61 | – | 72.8 | CC(C)Nc1cc(-c2ccc3cc(C#N)cnn23)ncc1-c1nnc(N2CCC3(CCN(C(=O)CNc4cccc5c4C(=O)N(C4CCC(=O)NC4=O)C5=O)CC3)CC2)s1 (stereo not drawn) [Example 82, 7-(5-(5-(9-((2-(2,6-dioxopiperidin-3-yl)-1,3-dioxoisoindolin-4-yl)glycyl)-3,9-diazaspiro[5.5]undecan-3-yl)-1,3,4-thiadiazol-2-yl)-4-(isopropylamino)pyridin-2-yl)pyrrolo[1,2-b]pyridazine-3-carbonitrile]
6 | – | 1.2 | – | 115 | – | 356 | CNc1cc(-c2ccc3cc(C#N)cnn23)ncc1-c1nnc(C23CCC(NC(=O)CCOCCC(=O)N[C@H](C(=O)N4C[C@H](O)C[C@H]4C(=O)NCc4ccc(-c5scnc5C)cc4)C(C)(C)C)(CC2)CC3)s1 [Example 129]
7 | – | 1.7 | – | 139 | – | 432 | CNc1cc(-c2ccc3cc(C#N)cnn23)ncc1-c1nnc(C23CCC(NC(=O)CCC(=O)N[C@H](C(=O)N4C[C@H](O)C[C@H]4C(=O)N[C@@H](C)c4ccc(-c5scnc5C)cc4)C(C)(C)C)(CC2)CC3)s1 [Example 128, N1-(4-(5-(6-(3-cyanopyrrolo[1,2-b]pyridazin-7-yl)-4-(methylamino)pyridin-3-yl)-1,3,4-thiadiazol-2-yl)bicyclo[2.2.2]octan-1-yl)-N4—((S)-1-((2S,4R)-4-hydroxy-2-(((S)-1-(4-(4-methylthiazol-5-yl)phenyl)ethyl)carbamoyl)pyrrolidin-1-yl)-3,3-dimethyl-1-oxobutan-2-yl)succinamide]
8 | – | 1.3 | – | 90 | – | 905 | CNc1cc(-c2ccc3cc(C#N)cnn23)ncc1-c1nnc(N2CCN(C(=O)COc3cc(-c4scnc4C)ccc3CNC(=O)[C@@H]3C[C@@H](O)CN3C(=O)[C@@H](NC(=O)C3(F)CC3)C(C)(C)C)CC2)s1 [Example 96, (2S,4R)—N-(2-(2-(4-(5-(6-(3-cyanopyrrolo[1,2-b]pyridazin-7-yl)-4-(methylamino)pyridin-3-yl)-1,3,4-thiadiazol-2-yl)piperazin-1-yl)-2-oxoethoxy)-4-(4-methylthiazol-5-yl)benzyl)-1-((S)-2-(1-fluorocyclopropane-1-carboxamido)-3,3-dimethylbutanoyl)-4-hydroxypyrrolidine-2-carboxamide]
9 | – | 2.4 | – | 90 | – | 519 | CNc1cc(-c2ccc3cc(C#N)cnn23)ncc1-c1nnc(C23CCC(NC(=O)CC(C)(C)C(=O)N[C@H](C(=O)N4C[C@H](O)C[C@H]4C(=O)N[C@@H](C)c4ccc(-c5scnc5C)cc4)C(C)(C)C)(CC2)CC3)s1 [Example 155, N4-(4-(5-(6-(3-cyanopyrrolo[1,2-b]pyridazin-7-yl)-4-(methylamino)pyridin-3-yl)-1,3,4-thiadiazol-2-yl)bicyclo[2.2.2]octan-1-yl)-N1—((S)-1-((2S,4R)-4-hydroxy-2-(((S)-1-(4-(4-methylthiazol-5-yl)phenyl)ethyl)carbamoyl)pyrrolidin-1-yl)-3,3-dimethyl-1-oxobutan-2-yl)-2,2-dimethylsuccinamide]
10 | – | 6.8 | – | 109 | – | 319 | Cc1ncsc1-c1ccc(CNC(=O)[C@@H]2C[C@@H](O)CN2C(=O)[C@@H](NC(=O)C2(F)CC2)C(C)(C)C)c(OCC(=O)N2CCC3(CC2)CCN(c2nnc(-c4cnc(-c5ccc6cc(C#N)cnn56)cc4NC(C)C)s2)CC3)c1 [Example 83, (2S,4R)—N-(2-(2-(9-(5-(6-(3-cyanopyrrolo[1,2-b]pyridazin-7-yl)-4-(isopropylamino)pyridin-3-yl)-1,3,4-thiadiazol-2-yl)-3,9-diazaspiro[5.5]undecan-3-yl)-2-oxoethoxy)-4-(4-methylthiazol-5-yl)benzyl)-1-((S)-2-(1-fluorocyclopropane-1-carboxamido)-3,3-dimethylbutanoyl)-4-hydroxypyrrolidine-2-carboxamide]
11 | 1.8 | 1.7 | 39 | 39 | 106 | 105 | CC(C)Nc1cc(-c2ccc3cc(C#N)cnn23)ncc1-c1nnc(N2CCN(C(=O)CNc3cccc4c3C(=O)N(C3CCC(=O)NC3=O)C4=O)CC2)s1 (stereo not drawn) [Example 31, 7-(5-(5-(4-((2-(2,6-dioxopiperidin-3-yl)-1,3-dioxoisoindolin-4-yl)glycyl)piperazin-1-yl)-1,3,4-thiadiazol-2-yl)-4-(isopropylamino)pyridin-2-yl)pyrrolo[1,2-b]pyridazine-3-carbonitrile]
12 | – | 0.6 | – | 34 | – | 1340 | CNc1cc(-c2ccc3cc(C#N)cnn23)ncc1-c1nnc([C@H]2CC[C@H](N(C)C(=O)CCC(=O)N[C@H](C(=O)N3C[C@H](O)C[C@H]3C(=O)N[C@@H](C)c3ccccc3)C(C)(C)C)CC2)s1 [Example 174, N1-((1r,4S)-4-(5-(6-(3-cyanopyrrolo[1,2-b]pyridazin-7-yl)-4-(methylamino)pyridin-3-yl)-1,3,4-thiadiazol-2-yl)cyclohexyl)-N4—((S)-1-((2S,4R)-4-hydroxy-2-(((S)-1-phenylethyl)carbamoyl)pyrrolidin-1-yl)-3,3-dimethyl-1-oxobutan-2-yl)-N1-methylsuccinamide]
13 | – | 1.1 | – | 105 | – | 18.5 | CNc1cc(-c2ccc3cc(C#N)cnn23)ncc1-c1nnc(N2CCN(C(=O)C3CCN(Cc4ccc5c(c4)C(=O)N(C4CCC(=O)NC4=O)C5=O)CC3)CC2)s1 (stereo not drawn) [Example 86, 7-(5-(5-(4-(1-((2-(2,6-dioxopiperidin-3-yl)-1,3-dioxoisoindolin-5-yl)methyl)piperidine-4-carbonyl)piperazin-1-yl)-1,3,4-thiadiazol-2-yl)-4-(methylamino)pyridin-2-yl)pyrrolo[1,2-b]pyridazine-3-carbonitrile]

Row | SMILES | IC50 (IRAK4 [1]; Table 4) [nM] | IC50 (IRAK4 [1]; Table 5, multiple runs) [nM] | Dmax (IRAK4 [2]; [3]) [%] | Dmax (IRAK4 [2]; [4]) [%] | DC50 (IRAK4 [2]; Table 4) [nM] | DC50 (IRAK4 [2]; Table 5, multiple runs) [nM]
14 | CN[C@@H](C)C(=O)N[C@H](C(=O)N1C[C@@H](NC(=O)CCCCCCC(=O)N2CCN(c3nnc(-c4cnc(-c5ccc6cc(C#N)cnn56)cc4NC(C)C)s3)CC2)C[C@H]1C(=O)N[C@@H]1CCCc2ccccc21)C1CCCCC1 [Example 52, (2S,4S)-4-(8-(4-(5-(6-(3-cyanopyrrolo[1,2-b]pyridazin-7-yl)-4-(isopropylamino)pyridin-3-yl)-1,3,4-thiadiazol-2-yl)piperazin-1-yl)-8-oxooctanamido)-1-((S)-2-cyclohexyl-2-((S)-2-(methylamino)propanamido)acetyl)-N—((R)-1,2,3,4-tetrahydronaphthalen-1-yl)pyrrolidine-2-carboxamide] | 1.9 | 1.9 | 70 | 70 | 422 | 422
